Results: patent US4224448A, “2'-(5'-Nitrofuryl) substituted quinolines” (priority 1966, dated 1980)
Converted amounts (≈) assume the structure as drawn. Read-outs that look alike come from different tables or passages of the source.

Experiments:
Experiment in all cases: Minimum inhibitory concentration, conventional tube dilution method
Assay type in all cases: cell-based
Candida albicans = conditions: read-out: Minimal Inhibitory Concentration, Cand. Alb.
How it was run: (§1)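 MIC determined by conventional tube dilution, read after 24 h at 37 °C. Values in mg/100 cc are the concentration inhibiting growth of 1–6 strains of each organism.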

Salmonella = conditions: read-out: Minimal Inhibitory Concentration, Salm.
How it was run: as §1

Staph. aureus = conditions: Staphylococcus aureus, read-out: Minimal Inhibitory Concentration, Staph. aureus
How it was run: as §1

[1] = fungus, tube dilution, 37 degrees, 24 hours, between 1 and 6 strains, mg/100 cc, decimal comma
[2] = gram-negative, tube dilution, 37 degrees, 24 hours, between 1 and 6 strains, mg/100 cc, decimal comma
[3] = gram-positive, tube dilution, 37 degrees, 24 hours, between 1 and 6 strains, mg/100 cc, decimal comma

| SMILES | MIC (Candida albicans; [1]) [µg/mL] | MIC (Salmonella; [2]) [µg/mL] | MIC (Staph. aureus; [3]) [µg/mL] | MIC (Candida albicans; 24 h) [µg/mL] | MIC (Staph. aureus; 24 h) [µg/mL] | MIC (Salmonella; 24 h) [µg/mL] |
| --- | --- | --- | --- | --- | --- | --- |
| Cc1cc(-c2ccc([N+](=O)[O-])o2)c2cc(C(=O)O)c(O)cc2n1 [CH3 H NF H COOH OH H] | > 50 | > 50 | 10 (≈ 31.8 µM) | – | – | – |
| CC(=O)Nc1ccc2c(-c3ccc([N+](=O)[O-])o3)cc(C)nc2c1C [CH3 H NF H H NHCOCH3 CH3] | > 50 | > 50 | 1 (≈ 3.07 µM) | – | – | – |
| Cc1cc(-c2ccc([N+](=O)[O-])o2)c2c([N+](=O)[O-])ccc(C)c2n1 [CH3 H NF NO2 H H CH3] | – | > 50 | – | > 50 | 0.5 to 1 (≈ 1.6 to 3.19 µM) | – |
| CCc1cc(-c2ccc([N+](=O)[O-])o2)c2ccc(C)cc2[n+]1[O-] [O C2 H5 H NF H H CH3 H] | < 5 | 25 to 50 (≈ 83.8 to 168 µM) | 0.5 (≈ 1.68 µM) | – | – | – |
| Cc1cc(-c2ccc([N+](=O)[O-])o2)c2cc3ccccc3cc2n1 [CH3 H NF H drawing 6 H, 2-methyl-4-[2'-(5'-nitrofuryl)]-6,7-benzoquinoline] | > 50 | > 10 | 5 (≈ 16.4 µM) | – | – | – |
| CCc1cc(-c2ccc([N+](=O)[O-])o2)c2ccc(O)cc2n1 [C2 H5 H 5NF H H OH H] | 50 (≈ 176 µM) | 5 (≈ 17.6 µM) | 0.1 to 0.5 (≈ 0.352 to 1.76 µM) | – | – | – |
| Cc1cc(-c2ccc([N+](=O)[O-])o2)nc2ccccc12 [NF H CH3 H H H H, 2-[2'-(5'-nitrofuryl)]-4-methyl quinoline] | 0.5 (≈ 1.97 µM) | 5 (≈ 19.7 µM) | 0.2 to 0.5 (≈ 0.787 to 1.97 µM) | – | – | – |
| COc1ccc2c(-c3ccc([N+](=O)[O-])o3)cc[n+]([O-])c2c1 [O H H NF H H OCH3 H, 4-[2'-(5'-nitrofuryl)]-7-methoxy quinoline N-oxide] | 0.5 (≈ 1.75 µM) | 5 (≈ 17.5 µM) | 0.01 to 0.05 (≈ 0.0349 to 0.175 µM) | – | – | – |
| CCCc1cc(-c2ccc([N+](=O)[O-])o2)c2cc(C)ccc2n1 [C3 H7 H NF H CH3 H H] | 5 to 10 (≈ 16.9 to 33.7 µM) | – | 1 (≈ 3.37 µM) | – | – | > 50 |
| CC(=O)OC(OC(C)=O)c1cc(-c2ccc([N+](=O)[O-])o2)c2ccccc2n1 [CH(OAc)2 H NF H H H H] | 25 to 50 (≈ 67.5 to 135 µM) | 5 (≈ 13.5 µM) | 0.1 (≈ 0.27 µM) | – | – | – |
| Cc1ccc2nc(C(Br)(Br)Br)cc(-c3ccc([N+](=O)[O-])o3)c2c1 [CBr3 H NF H CH3 H H, 2-tribromomethyl-4-[2'-(5'-nitrofuryl)]-6-methyl quinoline] | > 50 | > 25 | 1 (≈ 1.98 µM) | – | – | – |
| O=[N+]([O-])c1ccc(-c2cc[n+]([O-])c3ccccc23)o1 [O H H NF H H H H] | 0.5 (≈ 1.95 µM) | 5 (≈ 19.5 µM) | 0.1 to 0.5 (≈ 0.39 to 1.95 µM) | – | – | – |
| CCCc1cc(-c2ccc([N+](=O)[O-])o2)c2cc(C)ccc2[n+]1[O-] [O C3 H7 H NF H CH3 H H] | 5 to 25 (≈ 16 to 80 µM) | > 50 | 1 to 5 (≈ 3.2 to 16 µM) | – | – | – |
| O=[N+]([O-])c1ccc(-c2ccc3ccccc3n2)o1 [NF H H H H H H, 2-[2'-(5'-nitrofuryl)]quinoline] | 2 to 5 (≈ 8.33 to 20.8 µM) | – | 0.5 (≈ 2.08 µM) | – | – | 25 (≈ 104 µM) |
